Reference: patent US9656963B2 (BRISTOL-MYERS SQUIBB COMPANY, priority 2012, dated 2017)

Molecular target: T1, hGPR40 (Homo sapiens, UniProt O14842)
T1 construct: 3x FLAG; expressed in transfected cells
Assay: FDSS-Based Intracellular Calcium Assay
Format: cell-based
Details: cells expressing GPR40, intracellular Ca2+ response
Method: FDSS-Based Intracellular Calcium Assay
Cell lines expressing GPR40 are generated using the pDEST 3× flag gene expression system and are cultured in culture medium comprising the following components: F12 (Gibco #11765), 10% lipid deprived fetal bovine serum, 250 μg/ml zeocin and 500 μg/ml G418. To conduct the fluorescent imaging plate reader (FLIPR)-based calcium flux assay to measure intracellular Ca^2+ response, cells expressing GPR40 are plated on 384 well plates (BD Biocoat #356697) at a density of 20,000 cells/20 μL medium per well in phenol red and serum-free DMEM (Gibco #21063-029) and incubated overnight. […] Compounds are dissolved in DMSO and diluted to desired concentrations with assay buffer and added to the cells as 3x solution (20 μL per well). Run fluorescence/luminescence reader FDSS (Hamamatsu) to read intracellular Ca^2+ response.

T1 sequence (O14842 whole entry): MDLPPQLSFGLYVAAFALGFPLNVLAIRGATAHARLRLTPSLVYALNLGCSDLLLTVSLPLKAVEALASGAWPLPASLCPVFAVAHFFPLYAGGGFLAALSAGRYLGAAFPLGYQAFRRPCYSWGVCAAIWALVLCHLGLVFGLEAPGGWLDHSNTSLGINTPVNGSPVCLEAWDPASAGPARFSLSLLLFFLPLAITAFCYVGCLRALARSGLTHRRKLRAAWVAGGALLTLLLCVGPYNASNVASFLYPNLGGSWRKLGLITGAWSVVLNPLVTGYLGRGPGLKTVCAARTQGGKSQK

| SMILES | EC50 |
| --- | --- |
| Cc1ccccc1Oc1ccc(N2N=C(C(=O)N(C)C)CC2CC(=O)O)cc1 (racemic) [Example 6, 2-(3-(dimethylcarbamoyl)-1-(4-(o-tolyloxy)phenyl)-4,5-dihydro-1H-pyrazol-5-yl)acetic acid] | 1810 nM |
| COc1ccc(F)c(-c2ccc(Cc3ccc(N4N=C(c5ccc(Cl)cc5)[C@@H](C)[C@@H]4CC(=O)O)cc3)c(C)c2)c1 (single isomer, unassigned) [Example 66, Isomer 1] | 13 nM |
| COc1ccc(F)c(-c2ccc(Cc3ccc(N4N=C(c5ccc(Cl)cc5)[C@@H](C)[C@@H]4CC(=O)O)cc3)c(C)c2)c1 (single isomer, unassigned) [Example 66, isomer 2] | 510 nM |
| Cc1cc(-c2cnccn2)ccc1Cc1ccc(N2N=C(C(F)(F)F)[C@@H](C)[C@@H]2CC(=O)O)cc1 [Example 76, 2-((4S,5 S)-4-methyl-1-(4-(2-methyl-4-(pyrazin-2-yl)benzyl)phenyl)-3-(trifluoromethyl)-4,5-dihydro-1H-pyrazol-5-yl)acetic acid] | 1620 nM |
| COc1ccc(F)c(-c2ccc(Oc3ccc(N4N=C(C(F)(F)F)CC4CC(=O)O)cc3)cc2C)c1 (single isomer, unassigned) [Example 16, Isomer 2, 2-(1-(4-(2′-fluoro-5′-methoxy-2-methylbiphenyl-4-yloxy)phenyl)-3-(trifluoromethyl)-4,5-dihydro-1H-pyrazol-5-yl)acetic acid] | 340 nM |
| CC(C)c1ccccc1Oc1ccc(N2N=C(C#N)CC2CC(=O)O)cc1 (racemic) [Example 29, 2-(3-cyano-1-(4-(2-isopropylphenoxy)phenyl)-4,5-dihydro-1H-pyrazol-5-yl)acetic acid] | 430 nM |

More lines, now with the values ahead:

| EC50 | SMILES |
| --- | --- |
| 3110 nM | COc1ccc(OC)c(-c2ccc(Cc3ccc(N4N=C(C#N)CC4CC(=O)O)cc3)c(C)c2)c1 (single isomer, unassigned) [Example 49, Isomer 2, 2-(3-cyano-1-(4-((2′,5′-dimethoxy-3-methylbiphenyl-4-yl)methyl)phenyl)-4,5-dihydro-1H-pyrazol-5-yl)acetic acid] |
| 1910 nM | COc1ccc(F)c(-c2ccc(Cc3ccc(N4N=C(C(F)(F)F)C(CC5CC5)C4CC(=O)O)cc3)c(C)c2)c1 (single isomer, unassigned) [Example 46, Isomer 2, 2-(4-(cyclopropylmethyl)-1-(4-((2′-fluoro-5′-methoxy-3-methylbiphenyl-4-yl)methyl)phenyl)-3-(trifluoromethyl)-4,5-dihydro-1H-pyrazol-5-yl)acetic acid] |
| 380 nM | COc1ccc(F)c(-c2ccc(Cc3ccc(N4N=C(C(F)(F)F)C(CC#N)C4CC(=O)O)cc3)c(C)c2)c1 (single isomer, unassigned) [Example 54, isomer 1, 2-(4-(cyanomethyl)-1-(4-((2′-fluoro-5′-methoxy-3-methyl-[1,1′-biphenyl]-4-yl)methyl)phenyl)-3-(trifluoromethyl)-4,5-dihydro-1H-pyrazol-5-yl)acetic acid, trans-diastereomer] |
| 1550 nM | COc1ccc(F)c(-c2ccc(Cc3ccc(N4N=C(C(F)(F)F)CC4(C)CC(=O)O)cc3)c(C)c2)c1 (single isomer, unassigned) [Example 51, Isomer 1, 2-(1-(4-((2′-fluoro-5′-methoxy-3-methylbiphenyl-4-yl)methyl)phenyl)-5-methyl-3-(trifluoromethyl)-4,5-dihydro-1H-pyrazol-5-yl)acetic acid] |
| 50 nM | COc1ccc(F)c(-c2ccc(Cc3ccc(N4N=C(C(F)(F)F)C(CC5CC5)C4CC(=O)O)cc3)c(C)c2)c1 (single isomer, unassigned) [Example 46, Isomer 1, 2-(4-(cyclopropylmethyl)-1-(4-((2′-fluoro-5′-methoxy-3-methylbiphenyl-4-yl)methyl)phenyl)-3-(trifluoromethyl)-4,5-dihydro-1H-pyrazol-5-yl)acetic acid] |
